Values after ≈ are worked out from the molar mass of the structure shown.
Legend:
[1] = tested on: Staphylococcus aureus FDA209P; assay: Minimum inhibitory concentration, Staphylococcus aureus FDA209P; assay type: cell-based; settings: 0.5% peptone agar, 37° C., 17 hours
Protocol: (§1) *Minimum inhibitory concentrations were determined on a 0.5% peptone agar
(§2) by incubation at 37° C. for 17 hours.

[2] = tested on: Staphylococcus aureus Smith; assay: Minimum inhibitory concentration, Staphylococcus aureus Smith; assay type: cell-based; settings: 0.5% peptone agar, 37° C., 17 hours
Protocol: as §1, §2

Sarcina lutea PCI1001 = assay: Minimum inhibitory concentration, Sarcina lutea PCI1001; assay type: cell-based; settings: Micrococcus luteus, 0.5% peptone agar, 37° C., 17 hours
Protocol: as §1, §2

Micrococcus flavus FDA16 = assay: Minimum inhibitory concentration, Micrococcus flavus FDA16; assay type: cell-based; settings: 0.5% peptone agar, 37° C., 17 hours
Protocol: as §1, §2

[3] = tested on: Bacillus subtilis NRRL B-558; assay: Minimum inhibitory concentration, Bacillus subtilis NRRL B-558; assay type: cell-based; settings: NRRLB558, 0.5% peptone agar, 37° C., 17 hours
Protocol: as §1, §2

[4] = tested on: Mycobacterium smegmatis ATC607; assay: Minimum inhibitory concentration, Mycobacterium smegmatis ATC607; assay type: cell-based; settings: Mycolicibacterium smegmatis, 0.5% peptone agar, 37° C., 17 hours
Protocol: as §1, §2

Escherichia coli NIHJ = assay: Minimum inhibitory concentration, Escherichia coli NIHJ; assay type: cell-based; settings: 0.5% peptone agar, 37° C., 17 hours
Protocol: as §1, §2

Escherichia coliK-12 = assay: Minimum inhibitory concentration, Escherichia coli K-12; assay type: cell-based; settings: 0.5% peptone agar, 37° C., 17 hours
Protocol: as §1, §2

[5] = tested on: Escherichia coli K-12 ML1629; assay: Minimum inhibitory concentration, Escherichia coli K-12 ML1629; assay type: cell-based; settings: K12ML1629, 0.5% peptone agar, 37° C., 17 hours
Protocol: as §1, §2

Salmonella typhi T-63 = assay: Minimum inhibitory concentration, Salmonella typhi T-63; assay type: cell-based; settings: Salmonella enterica, 17 h, read-out: Minimum Inhibitory Concentration
Protocol: as §1, §2

Proteus vulgaris OX-19 = assay: Minimum inhibitory concentration, Proteus vulgaris OX-19; assay type: cell-based; settings: OX19, 0.5% peptone agar, 37° C., 17 hours
Protocol: as §1, §2

Proteus rettgeri GN311 = assay: Minimum inhibitory concentration, Proteus rettgeri GN311; assay type: cell-based; settings: Providencia rettgeri, 0.5% peptone agar, 37° C., 17 hours
Protocol: as §1, §2

Proteus rettgeri GN466 = assay: Minimum inhibitory concentration, Proteus rettgeri GN466; assay type: cell-based; settings: Providencia rettgeri, 0.5% peptone agar, 37° C., 17 hours
Protocol: as §1, §2

Serratia marcescens = assay: Minimum inhibitory concentration, Serratia marcescens; assay type: cell-based; settings: 0.5% peptone agar, 37° C., 17 hours
Protocol: as §1, §2

[6] = tested on: Klebsiella pneumoniae PCI602; assay: Minimum inhibitory concentration, Klebsiella pneumoniae PCI602; assay type: cell-based; settings: 0.5% peptone agar, 37° C., 17 hours
Protocol: as §1, §2

Pseudomonas fluorescens = assay: Minimum inhibitory concentration, Pseudomonas fluorescens; assay type: cell-based; settings: 0.5% peptone agar, 37° C., 17 hours
Protocol: as §1, §2

[7] = tested on: Pseudomonas aeruginosa A3; assay: Minimum inhibitory concentration, Pseudomonas aeruginosa A3; assay type: cell-based; settings: 0.5% peptone agar, 37° C., 17 hours
Protocol: as §1, §2

[8] = tested on: Pseudomonas aeruginosa No. 12; assay: Minimum inhibitory concentration, Pseudomonas aeruginosa No. 12; assay type: cell-based; settings: 0.5% peptone agar, 37° C., 17 hours
Protocol: as §1, §2

[9] = Stability in aqueous or 0.02N HCl aqueous solution; assay type: physicochemical; settings: in words
[10] = tested on: Gram-positive and Gram-negative bacteria; assay: Antibacterial activity against Gram-positive and Gram-negative bacteria; assay type: cell-based; settings: in words
Protocol: as §1, §2

| SMILES | MIC [1] | MIC [2] | MIC (Sarcina lutea PCI1001) | MIC (Micrococcus flavus FDA16) | MIC [3] | MIC [4] | MIC (Escherichia coli NIHJ) | MIC (Escherichia coliK-12) | MIC [5] | MIC (Salmonella typhi T-63) | MIC (Proteus vulgaris OX-19) | MIC (Proteus rettgeri GN311) | MIC (Proteus rettgeri GN466) | MIC (Serratia marcescens) | MIC [6] | MIC (Pseudomonas fluorescens) | MIC [7] | MIC [8] | stability in aqueous solution (general statement) [9] | inhibition of growth of Gram-positive and Gram-negative bacteria [10] |
| --- | --- | --- | --- | --- | --- | --- | --- | --- | --- | --- | --- | --- | --- | --- | --- | --- | --- | --- | --- | --- |
| CN(CC(=O)O)NC(=O)C[C@H](N)CCCN [Deoxynegamycin] | 25 µg/mL (≈ 108 µM) | 6.25 µg/mL (≈ 26.9 µM) | > 100 µg/mL | 50 µg/mL (≈ 215 µM) | 100 µg/mL (≈ 431 µM) | 50 µg/mL (≈ 215 µM) | 6.25 µg/mL (≈ 26.9 µM) | 3.13 µg/mL (≈ 13.5 µM) | 3.13 µg/mL (≈ 13.5 µM) | 0.78 µg/mL (≈ 3.36 µM) | 3.13 µg/mL (≈ 13.5 µM) | 6.25 µg/mL (≈ 26.9 µM) | 3.13 µg/mL (≈ 13.5 µM) | 25 µg/mL (≈ 108 µM) | 6.25 µg/mL (≈ 26.9 µM) | 3.13 µg/mL (≈ 13.5 µM) | 25 µg/mL (≈ 108 µM) | 50 µg/mL (≈ 215 µM) | quite stable in aqueous solution | active against Gram-positive and Gram-negative bacteria |
| CO[C@@H](CN)C[C@@H](N)CC(=O)NN(C)CC(=O)O [O-Methylnegamycin] | 12.5 µg/mL (≈ 47.7 µM) | 6.25 µg/mL (≈ 23.8 µM) | 25 µg/mL (≈ 95.3 µM) | 50 µg/mL (≈ 191 µM) | 50 µg/mL (≈ 191 µM) | 25 µg/mL (≈ 95.3 µM) | 6.25 µg/mL (≈ 23.8 µM) | 3.13 µg/mL (≈ 11.9 µM) | 1.56 µg/mL (≈ 5.95 µM) | 1.56 µg/mL (≈ 5.95 µM) | 1.56 µg/mL (≈ 5.95 µM) | 6.25 µg/mL (≈ 23.8 µM) | 3.13 µg/mL (≈ 11.9 µM) | 25 µg/mL (≈ 95.3 µM) | 6.25 µg/mL (≈ 23.8 µM) | 1.56 µg/mL (≈ 5.95 µM) | 12.5 µg/mL (≈ 47.7 µM) | 25 µg/mL (≈ 95.3 µM) | quite stable in aqueous solution | active against Gram-positive and Gram-negative bacteria |
